This test concerns the target SIRT2 (sirtuin-2) (Homo sapiens, UniProt Q8IXJ6). Briefly: in vitro enzymatic assay. Format: biochemical.

The structures appear in SMILES notation.

In general, IC50 refers to the concentration at which inhibition is half-maximal. A lower IC50 goes with inhibition by little substance.

Chain of SIRT2 (sirtuin-2) (Q8IXJ6 2-389): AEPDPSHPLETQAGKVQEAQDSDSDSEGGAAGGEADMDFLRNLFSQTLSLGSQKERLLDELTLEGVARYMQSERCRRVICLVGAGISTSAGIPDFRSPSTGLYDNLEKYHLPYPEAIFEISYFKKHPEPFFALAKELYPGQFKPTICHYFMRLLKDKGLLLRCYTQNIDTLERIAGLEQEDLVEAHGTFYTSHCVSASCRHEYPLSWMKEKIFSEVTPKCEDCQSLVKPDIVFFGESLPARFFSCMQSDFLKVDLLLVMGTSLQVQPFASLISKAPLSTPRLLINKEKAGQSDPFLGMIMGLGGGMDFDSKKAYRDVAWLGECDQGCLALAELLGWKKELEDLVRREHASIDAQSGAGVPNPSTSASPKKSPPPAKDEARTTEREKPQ

`COC(=O)[C@H](CCC(=O)Nc1cccc2c1ccn2Cc1cccc(C(N)=O)c1)NC(=O)OCc1ccccc1` [compound 6, (S)-Methyl 2-(((benzyloxy)carbonyl)amino)-5-((1-(3-carbamo-ylbenzyl)-1H-indol-4-yl)amino)-5-oxopentanoate] registered an IC50 of 33 µM.

The values above are taken from PMC5417072 (Anticancer research, 2016).
